The numbers were not newly measured in patent US20110064803A1, “NANOPARTICULATE AND CONTROLLED RELEASE COMPOSITIONS COMPRISING VITAMIN K2” (ELAN PHARMA INTERNATIONAL LIMITED., priority 2005, published 2011), which cites them from elsewhere.

Where two headings read alike, the source gives them in different places.

Test in series [1]: not given
The source holds these as a separate data set.

For series [2] the following is noted: oral.

With `CC(C)=CCC/C(C)=C/CC/C(C)=C/CC/C(C)=C/CC1=C(C)C(=O)c2ccccc2C1=O` [Vitamin K2], under “ethanol (99.5)”, the “Solubility in ethanol (99.5)” value is reported as “soluble”. The Solubility in hexane result (hexane) is reported as “very soluble”. Also, the Solubility in methanol result (methanol) is recorded as “slightly soluble”. Further, the Solubility in water entry (water) is given as “practically insoluble”. The Stability to light result in series [1] was “decomposes and the color becomes more intense by light”.
`COC(=O)C(c1ccccc1)C1CCCCN1` (stereo not drawn) [methylphenidate, α-phenyl-2-piperidine acetic acid methyl ester]: the “Persistence of drug effects” value was 3 to 6 h in series [2] (conventional IR tablets) and “up to 8 hours” in series [2] (extended release formulations).
